Test results: patent US20220168252A1, “RETINOID DERIVATIVES WITH ANTITUMOR ACTIVITY” (BIOGEM S.C. A R.L., priority 2016, published 2022)
Where a name gives a salt, the structure may show the parent alone. Read-outs that look alike come from different tables or passages of the source. One block for each molecule: values may come before it.

Assays:
[1] = system: Human Adarotene-resistant NCI-H460 (R9A) NSCLC; conditions: Zuco V. et al, Neoplasia 2005; cited from earlier work
MM487-Luc mesothelioma [2] = test: Anti-proliferative activity, MM487-Luc, 24 h + 48 h recovery, SRB; type: cell-based; conditions: Homo sapiens, 24 h exposure, read-out: IC50 ± SD MM487-Luc
Protocol: (§1) Tumor cells were exposed for 24 h to new atypical retinoids (AR) and the anti-proliferative activity assessed upon 48 h recovery in drug-free medium with the SRB assay. RI=Resistance Index (ratio between the IC50 values of resistant and sensitive cells).

[3] = system: H460-R9A retinoid resistant cells; test: H460-R9A lung cancer subcutaneous xenograft in mice; conditions: Cisplatin 4 mg/kg IV q7dx4w, MIR002 50 mg/kg OS bid, qdx5/wx4w
Protocol: CD-1 nude and NOG mice, females, 4-5 weeks-old, were housed under specific-pathogen-free conditions in individually ventilated cages.
Cells were cultured in appropriated media and expanded in a 37° C. incubator with saturated humidity and an atmosphere of 95% air and 5% CO2, and were sub-cultured every 2-3 days. Before the injection in mice, cells were checked with MycoAlert® Mycoplasma Detection Kit (Lonza) to exclude mycoplasma contamination, counted by trypan blue dye exclusion, evaluated for cell viability (>95%).
H-460-R9A lung cancer cells were suspended at a concentration of 25×10^6/ml. 5×10^6 tumor cells were suspended in 0.2 ml of M199, then inoculated subcutaneously on the right flank of each animal.
MIR002 was dissolved to a concentration of 3.3 mg/mL in 10% DMSO, 5% ethanol, 20% Kolliphor® EL and 65% Na2CO3 10 mM pH 11 and administered by gavage; Cisplatin was dissolved to a concentration of 0.8 mg/mL in sterile saline solution and administered intravenously.
Four days after inoculation, tumor masses of H460-R9A were measured in length and width using a Mitutoyo caliper, mice were sorted basing on tumor volume (TV) and treatments were started. Tumor volume was calculated as follows: TV (mm3)=(Length (mm)×Width (mm)2)/2. Tumor growth was followed by biweekly measurements. Tumor Growth Inhibition (TGI) for each group was calculated as follows: TGI (%)=100−(mean TVtreated/mean TVcontrol×100). Mice were weighed twice a week.

[4] = system: Human Adarotene-resistant NCI-H460 (R9A) NSCLC; test: Anti-proliferative activity, H460-R9A, 24 h + 48 h recovery, SRB; type: cell-based; conditions: 24 h exposure, read-out: IC50 ± SD H460-R9A
Protocol: as §1

U87MG glioblastoma cells = test: Anti-proliferative activity, U87MG, 24 h + 48 h recovery, SRB; type: cell-based; conditions: Homo sapiens, U-87 MG, 24 h exposure, read-out: IC50 ± SD U87MG
Protocol: as §1

Human NCI-H460 NSCLC = test: Anti-proliferative activity, NCI-H460, 72 h, SRB; type: cell-based; conditions: for cytotoxic activity / IC50 range on NCI-H460 cells: SRB/MTT assay
Protocol: (§2) The anti-proliferative activity of the POLA1/HDAC dual inhibitors MIR002 and GEM144 was assessed on various cell lines from solid and hematological cancers.
(§3) Human tumor cells were treated with POLA1/HDAC dual inhibitors and cell survival assessed upon 72 h with the SRB assay. HDAC=Histone Deacetylase. POLA1=DNA Polymerase Alpha 1. RI=Resistance Index.

U87MG-Luc (Glioma) = test: Orthotopic glioma murine model (U87MG-Luc), IVIS imaging; type: in vivo, mice; conditions: 100 mg/kg IP, qdx5x4w, intracranial U87MG-Luc
Protocol: Orthotopic glioma murine model. 1×10^6 Brain glioblastoma bioluminescent cells (U-87 MG) were injected intracranically and tumor growth was evaluated through IVIS imaging system.
Tumor growth was followed by biweekly measurements. […] Mice were weighed twice a week. […] Tumor growth was further followed by weekly BLI measurements. TGI was calculated as for the H460 trial.
The activity of compound 2 (RC1375) was evaluated on glioma xenograft murine models. Brain glioblastoma bioluminescent cells (U-87 MG) were injected intracranically and tumor growth was evaluated through IVIS imaging system. After a week of injection, 2 (RC1375) (100 mg/kg) was administered intraperitoneally to mice (qdx5x4w).

[5] = system: parent A2780 ovarian cancer cell line; test: Anti-proliferative activity, A2780, 24 h + 48 h recovery, SRB; type: cell-based; conditions: Homo sapiens, 24 h exposure, read-out: IC50 ± SD A2780
Protocol: as §1

[6] = system: A2780-Dx multidrug-resistant ovarian cancer cell line; test: Anti-proliferative activity, A2780-Dx, 24 h + 48 h recovery, SRB; type: cell-based, Human; conditions: for RI (Resistance Index, ratio between the IC50 values of resistant and sensitive cells): A2780-Dx vs A2780, 24 h exposure; for IC50: Homo sapiens, A2780/DX, 24 h exposure, SRB, read-out: IC50 ± SD A2780-Dx
Protocol: as §1
As described by Zuco V. et al in Neoplasia, 2005 July; 7(7):667-77, H460-R9A are about 70 fold resistant with respect to parental H460 to Adarotene. […] Ovarian cancer A2780 and its clone derivative A2780DX (Doxorubicin resistant) which overexpress P-glycoprotein (PGP), were used to evaluate the possibility of these new molecules to be absorbed at intestinal level. In fact, the overexpression of PGP, as well known, drastically reduces the possibility, after oral administration, of absorption of several chemotherapeutic agents (i.e. Paclitaxel, doxorubicin etc.). Since the IC50 of the tested compounds in A2780 and A2780DX, have similar values we conclude that they are not PGP substrates and they could be administrated to the patients via oral route.

[7] = system: parent A2780 ovarian carcinoma; test: Anti-proliferative activity, A2780, 72 h, SRB; type: cell-based, human; conditions: read-out: A2780 IC50 ± SD
Protocol: as §2, §3

U2932 (lymphoma) = test: Cell survival, U2932, 72 h, MTT; type: cell-based, Human
Protocol: as §2
(§4) Tumor cells were treated with POLA1/HDAC dual inhibitors and cell survival assessed upon 72 h with the MTT assay. HDAC=Histone Deacetylase. POLA1=DNA Polymerase Alpha 1.

DU145 prostate carcinoma = conditions: 72 h; SRB
Protocol: (§5) To this end, cells in the logarithmic phase of growth were seeded in 96-wells plastic plates, incubated overnight in culture medium, and treated for 72 h with scalar concentrations (2-fold dilution series) of the compounds.
(§6) Tumor cells were exposed to the inhibitors, and the anti-proliferative activity assessed upon 72 h with the SRB assay. N.e.=not evaluated.

HT29 colon carcinoma = conditions: 72 h; SRB
Protocol: as §5, §6

SW620 colon carcinoma = conditions: 72 h; SRB
Protocol: as §5, §6

MM487-Luc mesothelioma [8] = test: Anti-proliferative activity, MM487-Luc, 72 h, SRB; type: cell-based, Human
Protocol: as §2
(§7) HDAC=Histone Deacetylase. POLA1=DNA Polymerase Alpha 1. N.e.=not evaluated.

[9] = system: multidrug-resistant A2780-Dx ovarian carcinoma; test: Anti-proliferative activity, A2780-Dx, 72 h, SRB; type: cell-based, human
Protocol: as §2, §3

MM473-Luc mesothelioma = test: Anti-proliferative activity, MM473-Luc, 72 h, SRB; type: cell-based, Human
Protocol: as §2, §7

[10] = system: ST1926-resistant H460 (H460-R9A) NSCLC; test: Anti-proliferative activity, H460-R9A, 72 h, SRB; type: cell-based, human
Protocol: as §2, §3

B16-Luc (Melanoma) = test: Anti-proliferative activity, B16-Luc, 72 h, SRB; type: cell-based, mouse
Protocol: as §2, §7

THP-1 (leukemia) = test: Cell survival, THP-1, 72 h, MTT; type: cell-based, Human
Protocol: as §2, §4

Z138 (lymphoma) = test: Cell survival, Z138, 72 h, MTT; type: cell-based, Human
Protocol: as §2, §4

NB4 (leukemia) = test: Cell survival, NB4, 72 h, MTT; type: cell-based, Human; conditions: read-out: NB4 (leukemia) IC50 ± SD
Protocol: as §2, §4

[11] = Homo sapiens, NCI-H460, chronically exposed 72 h, SRB (Table 2), read-out: IC50 ± SD

Compound: O=C(O)/C=C/c1ccc(-c2ccc(O)c(C34CC5CC(CC(C5)C3)C4)c2)cc1 [Adarotene, reference compound]
resistance of H460-R9A with respect to parental H460 [1]: about 70 fold
IC50 (MM487-Luc mesothelioma [2]): 9200 ± 300 nM
BWL Day + 35 ([3]; Adarotene 15 mg/Kg OS q7dx5x4w): 12%
IC50 [4]: 26900 ± 700 nM
IC50 (U87MG glioblastoma cells): 1630 ± 100 nM

Compound: CC(C)(Oc1ccc(-c2ccc(/C=C/C(=O)O)cc2)cc1C12CC3CC(CC(C3)C1)C2)C(=O)NO [BIO146]
cytotoxic activity / IC50 range on NCI-H460 cells (Human NCI-H460 NSCLC; 72 h): micro molar range

Compound: O=C(O)/C=C/c1ccc(-c2ccc(OCCCCC(=O)NO)c(C34CC5CC(CC(C5)C3)C4)c2)cc1 [Compound 2, 3-[3′-Adamantan-1-yl-4′-(4-hydroxycarbamoyl-butoxy)-biphenyl-4-yl]-acrylic acid]
BLI Average (Day) (U87MG-Luc (Glioma); day +35): 1.31 × 10^5 ± 1.26 × 10^5 p/s/cm^2/sr
TGI (U87MG-Luc (Glioma)): 72%
IC50 [5]: 3700 ± 300 nM
IC50 (MM487-Luc mesothelioma [2]): 1900 ± 200 nM
melting point: 224 °C (dec.)
IC50 [4]: 5900 ± 100 nM
IC50 (U87MG glioblastoma cells): 5500 ± 900 nM
IC50 (Human NCI-H460 NSCLC; [11]): < 5000 nM
RI (Resistance Index, ratio between the IC50 values of resistant and sensitive cells) [6]: 1.3
IC50 [6]: 4500 ± 70 nM

Compound: O=C(O)/C=C/c1ccc(-c2ccc(OCCC(=O)NO)c(C34CC5CC(CC(C5)C3)C4)c2)cc1 [Compound 12, 3-[3′-Adamantan-1-yl-4′-(2-hydroxycarbamoyl-ethoxy)-biphenyl-4-yl]-acrylic acid]
IC50 [4]: 10600 ± 300 nM

Compound: O=C(O)/C=C/c1ccc(-c2ccc(OCCCC(=O)NO)c(C34CC5CC(CC(C5)C3)C4)c2)cc1 [Compound 1, 3-[3′-Adamantan-1-yl-4′-(3-hydroxycarbamoyl-propoxy)-biphenyl-4-yl]-acrylic acid]
IC50 [5]: 4200 ± 300 nM
IC50 (MM487-Luc mesothelioma [2]): 1700 ± 80 nM
IC50 [4]: 8300 ± 200 nM
IC50 (Human NCI-H460 NSCLC; [11]): < 5000 nM
RI (Resistance Index, ratio between the IC50 values of resistant and sensitive cells) [6]: 0.9
IC50 [6]: 3900 ± 100 nM

Compound: CC(Oc1ccc(-c2ccc(/C=C/C(=O)O)cc2)cc1C12CC3CC(CC(C3)C1)C2)C(=O)NO (stereo not shown) [GEM144]
IC50 [7]: 950 ± 40 nM
cytotoxicity, U2932 lymphoma (U2932 (lymphoma)): very effective
IC50 (U2932 (lymphoma); read-out: U2932 (lymphoma) IC50 ± SD): 770 ± 100 nM
cytotoxicity, DU145 prostate carcinoma (DU145 prostate carcinoma): very effective
cytotoxicity, HT29 colon carcinoma (HT29 colon carcinoma): very effective
cytotoxicity, SW620 colon carcinoma (SW620 colon carcinoma): very effective
cytotoxicity, MM487 mesothelioma (MM487-Luc mesothelioma [8]): very effective
IC50 (MM487-Luc mesothelioma [8]; read-out: MM487-Luc IC50 ± SD): 730 ± 200 nM
IC50 ([9]; 72 h, SRB, read-out: A2780-Dx IC50 ± SD): 660 ± 8 nM
RI (Resistance Index) ([9]; A2780-Dx vs A2780, 72 h): 0.7
substrate for the P-gp drug efflux pump ([9]; indicated by low resistance index, A2780-Dx vs A2780): very poor substrate
cytotoxicity, MM473 mesothelioma (MM473-Luc mesothelioma): very effective
IC50 (MM473-Luc mesothelioma; read-out: MM473-Luc IC50 ± SD): 1400 ± 200 nM
RI (Resistance Index) ([10]; H460-R9A vs NCI-H460): 8.5
IC50 ([10]; SRB, read-out: H460-R9A IC50 ± SD): 2200 ± 90 nM
cytotoxicity, B16 melanoma (B16-Luc (Melanoma)): very effective
IC50 (B16-Luc (Melanoma); read-out: B16-Luc (Melanoma) IC50 ± SD): 370 ± 30 nM
cytotoxicity, THP-1 leukemia (THP-1 (leukemia)): very effective
IC50 (THP-1 (leukemia); read-out: THP-1 (leukemia) IC50 ± SD): 520 ± 20 nM
cytotoxicity, Z138 lymphoma (Z138 (lymphoma)): very effective
IC50 (Z138 (lymphoma); read-out: Z138 (lymphoma) IC50 ± SD): 160 ± 30 nM
IC50 (NB4 (leukemia)): 230 ± 30 nM
IC50 (Human NCI-H460 NSCLC; 72 h, SRB (Table 8), read-out: NCI-H460 IC50 ± SD): 260 ± 9 nM
cytotoxic activity / IC50 range on NCI-H460 cells (Human NCI-H460 NSCLC; 72 h): nano molar range

Compound: N.N.[Cl][Pt][Cl] [Cisplatin, reference compound]
TGI Day + 35 ([3]; combination same doses): 34%

Compound: O=C(O)C=Cc1ccc(-c2ccc(OCCCCCCCC(=O)NO)c(C34CC5CC(CC(C5)C3)C4)c2)cc1 [Compound 3, 3-[3′-Adamantan-1-yl-4′-(7-hydroxycarbamoyl-heptyloxy)-biphenyl-4-yl]-acrylic acid]
IC50 (Human NCI-H460 NSCLC; [11]): ≤ 5000 nM

Continued, values first:

IC50 [4]: 2300 ± 400 nM
Compound: O=C(COc1ccc(-c2ccc3cc(C(=O)O)ccc3c2)cc1C12CC3CC(CC(C3)C1)C2)NO [Compound 14, 6-(3-Adamantan-1-yl-4-hydroxycarbamoylmethoxy-phenyl)-naphthalene-2-carboxylic acid]

IC50 (Human NCI-H460 NSCLC; [11]): < 5000 nM
Compound: O=C(O)/C=C/c1ccc(-c2ccc(OCCCC(=O)NCCSSCCNC(=O)C(Cc3ccc(O)c(Br)c3)=NO)c(C34CC5CC(CC(C5)C3)C4)c2)cc1 [Compound 5, 3-{3′-Adamantan-1-yl-4′-[3-(2-{2-[3-(3-bromo-4-hydroxy-phenyl)-2-hydroxyimino-propionylamino]-ethyldisulfanyl}-ethylcarbamoyl)-propoxy]-biphenyl-4-yl}-acrylic acid]

IC50 [4]: 16900 ± 500 nM
Compound: O=C(COc1ccc(-c2ccc3cc(C(=O)O)ccc3c2)cc1C12CC3CC(CC(C3)C1)C2)NOC1CCCCO1 (stereo not shown) [Compound 13, 6-{3-Adamantan-1-yl-4-[(tetrahydro-pyran-2-yloxycarbamoyl)-methoxy]-phenyl}-naphthalene-2-carboxylic acid]

IC50 (Human NCI-H460 NSCLC; [11]): ≤ 10000 nM
Compound: NCCSSCCNC(=O)CCCOc1ccc(-c2ccc(/C=C/C(=O)O)cc2)cc1C12CC3CC(CC(C3)C1)C2 [Compound 4, 2-(2-{4-[3-Adamantan-1-yl-4′-(2-carboxy-vinyl)-biphenyl-4-yloxy]-butyrylamino}-ethyldisulfanyl)-ethyl-ammonium; trifluoroacetate]

IC50 [4]: 17300 ± 1300 nM
Compound: NNC(=O)COc1ccc(-c2ccc(C=CC(=O)O)cc2)cc1C12CC3CC(CC(C3)C1)C2 [Compound 17, 3-(3′-adamantan-1-yl-4′-hydrazinocarbonylmethoxy-biphenyl-4-yl)-acrylic acid trifluoroacetate]

IC50 (Human NCI-H460 NSCLC; [11]): < 100 nM
Compound: O=C(O)/C=C/c1ccc(-c2ccc(OC(=O)CCC(=O)NCCSSCCNC(=O)/C(Cc3ccc(O)c(Br)c3)=N/O)c(C34CC5CC(CC(C5)C3)C4)c2)cc1 [Compound 6, 3-{3′-Adamantan-1-yl-4′-[3-(2-{2-[3-(3-bromo-4-hydroxy-phenyl)-2-hydroxyimino-propionylamino]-ethyldisulfanyl}-ethylcarbamoyl)-propionyloxy]-biphenyl-4-yl}-acrylic acid]
